This passage reports IC50 results from ChEMBL document CHEMBL5726876, “NHE3-binding compounds and methods for inhibiting phosphate transport” (2019).

pIC50: −log10 of the molar value. Several values for one entry are separate records, joined by “and”; a condition that tells them apart may be missing. Equal entries are not always repeated.

A short description of the experiment: Cell-based activity under Prompt Conditions: Cell-based activity under Prompt Conditions. Rat or human NHE3-mediated Na+-dependent H+ antiport was measured using a modification of the pH sensitive dye method originally reported by Paradiso (PNAS USA. 81:7436-7440, 1984). Opossum kidney (OK) cells were obtained from the ATCC and propagated per their instructions. The rat NHE3 gene (GenBank M85300) or the human NHE3 gene (GenBank NM_004174.1) was introduced into OK cells via electroporation, and cells were seeded into 96 well plates and grown overnight. Medium was aspirated from the wells, cells were washed twice with NaCl-HEPES buffer (100 mM NaCl, 50 mM HEPES, 10 mM glucose, 5 mM KCl, 2 mM CaCl2, 1 mM MgCl2, pH 7.4), then incubated for 30 min at room temperature with NH4Cl-HEPES buffer (20 mM NH4Cl, 80 mM NaCl, 50 mM HEPES, 5 mM KCl, 2 mM CaCl2, 1 mM MgCl2, pH 7.4) containing 5 μM bis(acetoxymethyl) 3,3′-(3′,6′-bis(acetoxymethoxy)-5-((acetoxymethoxy)carbonyl)-3-oxo-3H-spiro[isobenzofuran-1,9′-xanthene]-2′,7′-diyl)dipropanoate (BCECF-AM).Cells were washed twice with Ammonium free, Na+-free HEPES (100 mM choline, 50 mM HEPES, 10 mM glucose, 5 mM KCl, 2 mM CaCl2, 1 mM MgCl2, pH 7.4) and incubated in the same buffer for 10 minutes at room temperature to lower intracellular pH. […] Initial rates were plotted as the average 2 or more replicates, and pIC50 values were estimated using GraphPad Prism.

Take `CN1Cc2c(Cl)cc(Cl)cc2C(c2cccc(S(N)(=O)=O)c2)C1` (stereo not given): the pIC50 was 6.60.

On to `NCCOCCOCCN1CCN(c2ccc(-c3nc(N=C(N)N)nc4ccc(Cl)cc34)cc2)CC1`, for which the pIC50 is 7.00.

For the molecule `N=C(N)Nc1nc(-c2ccc(N3CCN(CCOCCOCCOCCNC(=O)NCCOCCOCCNC(=O)NCCOCCOCCOCCN4CCN(c5ccc(-c6nc(NC(=N)N)nc7ccc(Cl)cc67)cc5)CC4)CC3)cc2)c2cc(Cl)ccc2n1`, the pIC50 was 7.30.

With `C/C(=C\c1cc(F)c(Oc2ccc(S(=O)(=O)NCCOCCOCCOCCNC(=O)N3CCN(C(=O)NCCOCCOCCOCCNS(=O)(=O)c4ccc(Oc5c(F)cc(/C=C(\C)C(=O)N=C(N)N)cc5F)cc4)CC3)cc2)c(F)c1)C(=O)N=C(N)N`, the pIC50 is 7.70.

`NC(N)=Nc1nc(-c2ccc(N3CCN(CCOCCOCCNC(=O)[C@H](O)[C@@H](O)C(=O)NCCOCCOCCN4CCN(c5ccc(-c6nc(N=C(N)N)nc7ccc(Cl)cc67)cc5)CC4)CC3)cc2)c2cc(Cl)ccc2n1`: the pIC50 was 7.10.

For `NCCOCCOCCN1CCN(c2cccc(-c3nc(N=C(N)N)nc4ccc(Cl)cc34)c2)CC1`, the pIC50 is 6.70.

Turning to `N=C(N)Nc1nc(-c2ccc(S(=O)(=O)NCCOCCOCCN)cc2)c2cc(Cl)ccc2n1`, the pIC50 was 6.90.

Regarding `N=C(N)Nc1nc(-c2cccc(S(=O)(=O)NCCOCCOCCN)c2)c2cc(Cl)ccc2n1`, the pIC50 was 6.30.

For the molecule `C/C(=C\c1cc(F)c(Oc2ccc(S(=O)(=O)NCCOCCOCCOCCN)cc2)c(F)c1)C(=O)N=C(N)N`, the pIC50 was 6.90.

For `NCCOCCOCCOc1ccc(-c2nc(N=C(N)N)nc3ccc(Cl)cc23)cc1`, the pIC50 was 6.95.

As for `N=C(N)Nc1nc(-c2cccc(S(=O)(=O)NCCOCCOCCOCCN)c2)c2cc(Cl)ccc2n1`, the pIC50 was 6.10.

In the case of `C/C(=C\c1cc(F)c(Oc2ccc(S(=O)(=O)NCCOCCOCCOCCNC(=O)OCCOCCOCCOC(=O)NCCOCCOCCOCCNS(=O)(=O)c3ccc(Oc4c(F)cc(/C=C(\C)C(=O)N=C(N)N)cc4F)cc3)cc2)c(F)c1)C(=O)N=C(N)N`, the pIC50 is 7.50.

For `N=C(N)Nc1nc(-c2ccc(OCCOCCOCCOCCN)cc2)c2cc(Cl)ccc2n1`, the pIC50 was 7.50.

As to `NCCOCCOCCOCCN1CCN(c2ccc(-c3nc(N=C(N)N)nc4ccc(Cl)cc34)cc2)CC1`, the pIC50 was 7.25 and 6.90.

Turning to `CN1Cc2c(Cl)cc(Cl)cc2[C@H](c2cccc(S(=O)(=O)NCCOCCOCCOCCN)c2)C1`, the pIC50 was 7.34.

In the case of `C/C(=C\c1cc(F)c(Oc2ccc(S(=O)(=O)NCCOCCOCCOCCNC(=O)CN(CCN(CC(=O)O)CC(=O)NCCOCCOCCOCCNS(=O)(=O)c3ccc(Oc4c(F)cc(/C=C(\C)C(=O)N=C(N)N)cc4F)cc3)CC(=O)O)cc2)c(F)c1)C(=O)N=C(N)N`, the pIC50 was 7.50.

As to `C/C(=C\c1cc(F)c(Oc2ccc(S(=O)(=O)NCCOCCOCCOCCNC(=O)N(C)CCCCN(C)C(=O)NCCOCCOCCOCCNS(=O)(=O)c3ccc(Oc4c(F)cc(/C=C(\C)C(=O)N=C(N)N)cc4F)cc3)cc2)c(F)c1)C(=O)N=C(N)N`, the pIC50 was 7.80.

In the case of `CN1Cc2c(Cl)cc(Cl)cc2[C@@H](c2cccc(S(=O)(=O)NCCOCCOCCNC(=O)NCCCCNC(=O)NCCOCCOCCNS(=O)(=O)c3cccc([C@@H]4CN(C)Cc5c(Cl)cc(Cl)cc54)c3)c2)C1`, the pIC50 is 7.30 and > 5.00.

Take `C/C(=C\c1cc(F)c(Oc2ccc(S(=O)(=O)NCCOCCOCCOCCNC(=O)[C@H](O)[C@@H](O)C(=O)NCCOCCOCCOCCNS(=O)(=O)c3ccc(Oc4c(F)cc(/C=C(\C)C(=O)N=C(N)N)cc4F)cc3)cc2)c(F)c1)C(=O)N=C(N)N`: the pIC50 was 6.90.

Take `C/C(=C\c1cc(F)c(Oc2ccc(S(=O)(=O)NCCOCCOCCOCCNCc3ccc(CNCCOCCOCCOCCNS(=O)(=O)c4ccc(Oc5c(F)cc(/C=C(\C)C(=O)N=C(N)N)cc5F)cc4)cc3)cc2)c(F)c1)C(=O)N=C(N)N`: the pIC50 is 6.70.

As for `C/C(=C\c1cc(F)c(Oc2ccc(S(=O)(=O)NCCOCCOCCOCCNC(=O)NCCCCNC(=O)NCCOCCOCCOCCNS(=O)(=O)c3ccc(Oc4c(F)cc(/C=C(\C)C(=O)N=C(N)N)cc4F)cc3)cc2)c(F)c1)C(=O)N=C(N)N`, the pIC50 was 7.50.

Take `C/C(=C\c1cc(F)c(Oc2ccc(S(=O)(=O)NCCOCCOCCOCCNC(=O)NCCOCCOCCNC(=O)NCCOCCOCCOCCNS(=O)(=O)c3ccc(Oc4c(F)cc(/C=C(\C)C(=O)N=C(N)N)cc4F)cc3)cc2)c(F)c1)C(=O)N=C(N)N`: the pIC50 was 7.00.

Take `NCCOCCOCCOc1cccc(-c2nc(N=C(N)N)nc3ccc(Cl)cc23)c1`: the pIC50 is 6.65.

In the case of `COCCNS(=O)(=O)c1cccc(C2CN(C)Cc3c(Cl)cc(Cl)cc32)c1` (stereo not given), the pIC50 is 6.70.

Take `C/C(=C\c1cc(F)c(Oc2ccc(S(=O)(=O)NCCOCCOCCOCCNC(=O)COCC(=O)NCCOCCOCCOCCNS(=O)(=O)c3ccc(Oc4c(F)cc(/C=C(\C)C(=O)N=C(N)N)cc4F)cc3)cc2)c(F)c1)C(=O)N=C(N)N`: the pIC50 is 7.30.

`CN1Cc2c(Cl)cc(Cl)cc2[C@H](c2cccc(S(=O)(=O)NCCOCCOCCOCCNC(=O)COCC(=O)NCCOCCOCCOc3cccc(-c4nc(NC(=N)N)nc5ccc(Cl)cc45)c3)c2)C1`: the pIC50 is 6.85.

With `COCCNC(=O)CN(C)CC(=O)NCCOCCOCCNC(=O)NCCOCCOCCOCCOc1ccc(-c2nc(NC(=N)N)nc3ccc(Cl)cc23)cc1`, the pIC50 was 7.90.

Take `CNC(=O)CN(CCN(CC(=O)O)CC(=O)NCCOCCOCCNC(=O)NCCOCCOCCOCCOc1cccc(-c2nc(NC(=N)N)nc3ccc(Cl)cc23)c1)CC(=O)O`: the pIC50 is 7.70.

With `COCCOCCOCCOCCC(=O)NCCOCCOCCOCCN1CCN(c2cccc(-c3nc(NC(=N)N)nc4ccc(Cl)cc34)c2)CC1`, the pIC50 was 7.30.

As for `COCCNC(=O)CN(C)CC(=O)NCCOCCOCCNC(=O)NCCOCCOCCOCCN1CCN(c2ccc(-c3nc(N=C(N)N)nc4ccc(Cl)cc34)cc2)CC1`, the pIC50 was 7.50.

`COCCNC(=O)CN(C)CC(=O)NCCOCCOCCNC(=O)NCCOCCOCCOCCN1CCN(c2cccc(-c3nc(NC(=N)N)nc4ccc(Cl)cc34)c2)CC1`: the pIC50 is 7.70.

Regarding `CCNC(=O)CCOCCOCCOCCOCCOCCC(=O)NCCOCCOCCOCCN1CCN(c2ccc(-c3nc(NC(=N)N)nc4ccc(Cl)cc34)cc2)CC1`, the pIC50 was 7.68.

As for `COCCOCCOCCC(=O)NCCOCCOCCOCCN1CCN(c2cccc(-c3nc(NC(=N)N)nc4ccc(Cl)cc34)c2)CC1`, the pIC50 was 6.87.

For the molecule `CCCOCNC(=O)NCCCCNC(=O)NCCOCCOCCNC(=O)NCCOCCOCCN1CCN(c2cccc(-c3nc(N=C(N)N)nc4ccc(Cl)cc34)c2)CC1`, the pIC50 is 7.60.

For the molecule `CN(CCN(CC(=O)O)CC(=O)NCCOCCOCCNC(=O)NCCOCCOCCOCCN1CCN(c2ccc(-c3nc(N=C(N)N)nc4ccc(Cl)cc34)cc2)CC1)CC(=O)O`, the pIC50 is 7.80.

In the case of `CN(CCN(CC(=O)O)CC(=O)NCCOCCOCCNC(=O)NCCOCCOCCOCCOc1ccc(-c2nc(NC(=N)N)nc3ccc(Cl)cc23)cc1)CC(=O)O`, the pIC50 is 8.00.

For `CCCCNC(=O)NCCOCCOCCNC(=O)NCCOCCOCCOCCOc1ccc(-c2nc(NC(=N)N)nc3ccc(Cl)cc23)cc1`, the pIC50 was 7.60.

On to `CN(C)CC(=O)NCCOCCOCCNC(=O)NCCOCCOCCN1CCN(c2cccc(-c3nc(NC(=N)N)nc4ccc(Cl)cc34)c2)CC1`, for which the pIC50 was 7.40.

In the case of `COCCNC(=O)CN(C)CC(=O)NCCOCCOCCNC(=O)NCCOCCOCCOCCOc1cccc(-c2nc(NC(=N)N)nc3ccc(Cl)cc23)c1`, the pIC50 is 7.50.

As to `CCNC(=O)CN(C)CC(=O)NCCOCCOCCOCCNS(=O)(=O)c1ccc(Oc2c(F)cc(/C=C(\C)C(=O)N=C(N)N)cc2F)cc1`, the pIC50 was 6.50.

What is called pIC50 is the IC50 on a negative log10 scale, so that one unit is a factor of ten.
